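How tested: cells in 96-well plates exposed to compound for 48 hours at five concentrations. Here, GI50 denotes the concentration required for 50% inhibition of growth.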 Calls of active or inactive are those of the source. Rule as the data show it: active = GI50 up to about 1.1 µM and inactive = higher.
Key:
Assay in all cases: growth of human tumour cells (NCI), 48 h
ACHN = system: ACHN
HCC 2998 = system: HCC 2998
HOP-62 = system: HOP-62
Hs-578T = system: Hs-578T
KM12 = system: KM12
M14 = system: M14
MCF7 = system: MCF7
MDA-MB-435 = system: MDA-MB-435
MOLT-4 = system: MOLT-4
Malme-3M = system: Malme-3M
NCI/ADR-RES = system: NCI/ADR-RES
OVCAR-3 = system: OVCAR-3
SF-539 = system: SF-539
SR = system: SR
TK-10 = system: TK-10
DLD-1 = system: DLD-1
DMS-273 = system: DMS-273
HOP-18 = system: HOP-18
KM-20L2 = system: KM-20L2
SNB-78 = system: SNB-78

Structure (SMILES)	GI50 (ACHN)	GI50 (HCC 2998)	GI50 (HOP-62)	GI50 (Hs-578T)	GI50 (KM12)	GI50 (M14)	GI50 (MCF7)	GI50 (MDA-MB-435)	GI50 (MOLT-4)	GI50 (Malme-3M)	GI50 (NCI/ADR-RES)	GI50 (OVCAR-3)	GI50 (SF-539)	GI50 (SR)	GI50 (TK-10)	GI50 (DLD-1)	GI50 (DMS-273)	GI50 (HOP-18)	GI50 (KM-20L2)	GI50 (SNB-78)
C=CS(=O)(=O)c1c2cc(OC)ccc2nc2ccc(OC)cc12	3.35 µM (inactive)	7.91 µM (inactive)	14.8 µM (inactive)	2.97 µM (inactive)	9.89 µM (inactive)	7.46 µM (inactive)	2.94 µM (inactive)	5.58 µM (inactive)	2.32 µM (inactive)	2.04 µM (inactive)	10.4 µM (inactive)	2.82 µM (inactive)	2.51 µM (inactive)	2.32 µM (inactive)	7.62 µM (inactive)					
Clc1nc(Cl)nc(Nc2cccc3ccccc23)n1	> 10 µM (inactive)	> 10 µM (inactive)	> 10 µM (inactive)	> 10 µM (inactive)	> 10 µM (inactive)	> 10 µM (inactive)	> 10 µM (inactive)	> 10 µM (inactive)	> 10 µM (inactive)	> 10 µM (inactive)	> 10 µM (inactive)	0.0436 µM (active)	> 10 µM (inactive)	> 10 µM (inactive)	> 10 µM (inactive)					
COC(=O)c1c(O)ccc2c1c1c(n2Cc2cccc(C)c2)C(=O)c2ccccc2C1	21.1 µM (inactive)		10.4 µM (inactive)	23.2 µM (inactive)		14.5 µM (inactive)	27.9 µM (inactive)	11.4 µM (inactive)	17.1 µM (inactive)	13.5 µM (inactive)	15.5 µM (inactive)	12.6 µM (inactive)	17.1 µM (inactive)	13.7 µM (inactive)	22 µM (inactive)					
COc1ccc(C(=O)Cc2ccc(Cl)cc2)cc1OC	> 100 µM (inactive)	> 100 µM (inactive)	> 100 µM (inactive)			> 100 µM (inactive)			> 100 µM (inactive)	> 100 µM (inactive)		> 100 µM (inactive)	> 100 µM (inactive)	> 100 µM (inactive)	> 100 µM (inactive)	> 100 µM (inactive)	> 100 µM (inactive)	> 100 µM (inactive)	> 100 µM (inactive)	> 100 µM (inactive)
COc1cc(C2c3cc4c(cc3OC3(O)COC(=O)C23)OCO4)cc(OC)c1OC (stereo unspecified)	53 µM (inactive)	70 µM (inactive)	62.7 µM (inactive)			34.7 µM (inactive)			42.6 µM (inactive)	81.1 µM (inactive)		33 µM (inactive)	28.8 µM (inactive)	16.7 µM (inactive)	51.3 µM (inactive)	45.9 µM (inactive)	36.5 µM (inactive)	> 100 µM (inactive)	24.3 µM (inactive)	> 100 µM (inactive)
Cc1cc(Cl)ccc1NC1=NC(=O)C(CC(=O)Nc2cccc(Cl)c2)S1 (stereo unspecified)	11.2 µM (inactive)	63.2 µM (inactive)	> 100 µM (inactive)		35.2 µM (inactive)	44.7 µM (inactive)				> 100 µM (inactive)		43 µM (inactive)	77.6 µM (inactive)		83.6 µM (inactive)	21.7 µM (inactive)	29.8 µM (inactive)	> 100 µM (inactive)	26.5 µM (inactive)	> 100 µM (inactive)
C=CCOC1=C(OCC=C)C(C2COC(C)(C)O2)OC1=O (stereo unspecified)	> 100 µM (inactive)	> 100 µM (inactive)	> 100 µM (inactive)	> 100 µM (inactive)	> 100 µM (inactive)	> 100 µM (inactive)	> 100 µM (inactive)	> 100 µM (inactive)	> 100 µM (inactive)	> 100 µM (inactive)	> 100 µM (inactive)	> 100 µM (inactive)	> 100 µM (inactive)	98.2 µM (inactive)	> 100 µM (inactive)					
CC(=O)NNc1nc(C)c(C(=O)NNC(=O)C(=O)Nc2cccc(C(C)=O)c2)s1	16.9 µM (inactive)	17.3 µM (inactive)	25.3 µM (inactive)		24.7 µM (inactive)				45.3 µM (inactive)				18.7 µM (inactive)	18 µM (inactive)	16.9 µM (inactive)	28.1 µM (inactive)	34.8 µM (inactive)		59 µM (inactive)	75.3 µM (inactive)
Cn1c(=O)c2nc(N3CCOCC3)cnc2n(C)c1=O	> 100 µM (inactive)	> 100 µM (inactive)	> 100 µM (inactive)		> 100 µM (inactive)	> 100 µM (inactive)			> 100 µM (inactive)	> 100 µM (inactive)		> 100 µM (inactive)	> 100 µM (inactive)	> 100 µM (inactive)	> 100 µM (inactive)	> 100 µM (inactive)	> 100 µM (inactive)		> 100 µM (inactive)	> 100 µM (inactive)
CC1(C)C(=O)c2ccccc2OC1N1CCN(C2Oc3ccccc3C(=O)C2(C)C)CC1 (stereo unspecified)	> 100 µM (inactive)	> 100 µM (inactive)	> 100 µM (inactive)	61.1 µM (inactive)	> 100 µM (inactive)	> 100 µM (inactive)	> 100 µM (inactive)	> 100 µM (inactive)	> 100 µM (inactive)	30.3 µM (inactive)	> 100 µM (inactive)	> 100 µM (inactive)		> 100 µM (inactive)	> 100 µM (inactive)					
COc1cc(C2(c3ncc[nH]3)SSSCC2O)ccc1O (stereo unspecified)		27.9 µM (inactive)	> 66.4 µM (inactive)		> 100 µM (inactive)		39.6 µM (inactive)		16.5 µM (inactive)		> 40.6 µM (inactive)	32.2 µM (inactive)	> 59 µM (inactive)			58.5 µM (inactive)	30.1 µM (inactive)	> 66.4 µM (inactive)	> 92.5 µM (inactive)	34.2 µM (inactive)
Cn1ccnc1C(O)(c1nccn1C)c1nccn1C	> 100 µM (inactive)	> 100 µM (inactive)	> 100 µM (inactive)		> 100 µM (inactive)	> 100 µM (inactive)				> 100 µM (inactive)				> 100 µM (inactive)	> 100 µM (inactive)	> 100 µM (inactive)		14.1 µM (inactive)		> 100 µM (inactive)
CC(NCCS(=O)(=O)O)C(=O)O (stereo unspecified)		> 100 µM (inactive)	> 100 µM (inactive)		> 100 µM (inactive)		> 100 µM (inactive)		> 100 µM (inactive)	> 100 µM (inactive)	> 100 µM (inactive)	> 45.6 µM (inactive)	> 100 µM (inactive)			> 100 µM (inactive)	> 100 µM (inactive)	> 100 µM (inactive)	> 100 µM (inactive)	99.8 µM (inactive)
C=CCN(N=O)C(=O)N(CCC)CCCCC(NC(C)=O)C(=O)NCc1ccccc1 (stereo unspecified)	> 100 µM (inactive)		> 100 µM (inactive)		59.4 µM (inactive)	> 100 µM (inactive)			22.5 µM (inactive)	> 100 µM (inactive)		75.5 µM (inactive)	> 100 µM (inactive)		> 100 µM (inactive)		> 100 µM (inactive)	> 100 µM (inactive)	91.6 µM (inactive)	
COC(=O)C1CCC(=O)N1C(=O)Cc1ccc(OC)cc1 (stereo unspecified)	> 100 µM (inactive)				> 100 µM (inactive)	> 100 µM (inactive)						> 100 µM (inactive)			> 100 µM (inactive)		> 100 µM (inactive)		> 100 µM (inactive)	> 100 µM (inactive)
CCCn1cc2c(O)nc(SC)nc2n1	> 100 µM (inactive)	> 100 µM (inactive)			> 100 µM (inactive)	> 100 µM (inactive)			> 100 µM (inactive)	> 100 µM (inactive)			> 100 µM (inactive)	57.3 µM (inactive)	> 100 µM (inactive)	> 100 µM (inactive)	> 100 µM (inactive)	28.8 µM (inactive)		32.3 µM (inactive)
Nc1nc(N)c2c(n1)NC(=O)c1c(c3ccccc3n1Cc1ccc(Cl)cc1)C2		17.8 µM (inactive)	25.5 µM (inactive)	24 µM (inactive)		37.8 µM (inactive)	35.3 µM (inactive)	18.8 µM (inactive)	6.56 µM (inactive)	55.3 µM (inactive)	26.6 µM (inactive)	23.3 µM (inactive)	23.9 µM (inactive)	> 10 µM (inactive)	21.5 µM (inactive)					
O=C1C2=C(C3=NCCc4c[nH]c1c43)c1c(Br)cc(Br)cc1CCN2		2.01 µM (inactive)	14.6 µM (inactive)		2.56 µM (inactive)		1.8 µM (inactive)		1.35 µM (inactive)		4.71 µM (inactive)	2.77 µM (inactive)	3.42 µM (inactive)			1.79 µM (inactive)	3.12 µM (inactive)	3.15 µM (inactive)	2.75 µM (inactive)	5.55 µM (inactive)
CO/C=C1\OC(=O)C=C1OC		> 100 µM (inactive)			> 100 µM (inactive)		> 100 µM (inactive)		> 100 µM (inactive)	> 100 µM (inactive)	> 100 µM (inactive)	> 100 µM (inactive)	> 100 µM (inactive)			> 100 µM (inactive)	> 100 µM (inactive)	> 100 µM (inactive)		> 100 µM (inactive)
CC1(C)COC(/C=C/C2=NC(C)(C)CO2)=N1	17.4 µM (inactive)		18.9 µM (inactive)	< 0.01 µM (active)	13.9 µM (inactive)	14.7 µM (inactive)	15.9 µM (inactive)	23.7 µM (inactive)	12.6 µM (inactive)	17.5 µM (inactive)	26.1 µM (inactive)	12.4 µM (inactive)	22 µM (inactive)	4.44 µM (inactive)	11.3 µM (inactive)					
COc1ccc(C2C(Cl)C(=O)N2NC(=O)c2ccccc2O)cc1 (stereo unspecified)			> 100 µM (inactive)		> 100 µM (inactive)	> 100 µM (inactive)			> 100 µM (inactive)	> 100 µM (inactive)		> 100 µM (inactive)	> 100 µM (inactive)	> 100 µM (inactive)	> 100 µM (inactive)				> 100 µM (inactive)	

From ChEMBL document CHEMBL1201862, “PubChem BioAssay data set” (2004)
